# According to patent US20050079176A1, “Treating stress response with chemokine receptor ccr5 modulators” (priority 2002, published 2005):
# “And” between values parts separate entries of the source, which are not always exact repeats. Equal values may be shown once. “Also recorded” adds a separate entry of the source.
# Tests used:
# [1] = tested on: cynomolgus cardiac allografts; assay: Cardiac allograft survival / graft function after heterotopic transplantation; type: in vivo, Macaca fascicularis
# From the text: Cynomolgus macaques (Macaca fascicularis), weighing 2.4-4.7 kg, and ranging in estimated age from 2.2-5.5 years were selected as organ recipients. Donors were matched to recipients by AB blood type compatibility as tested by New York University, Nelson Institute of Environmental Medicine, Tuxedo, N.Y. MHC class II mismatch was assured by a stimulation index (SI)>3 in paired animals in unidirectional mixed lymphocyte reaction (MLR) using potential donor lymphocytes as stimulators and potential recipient peripheral blood mononuclear cells (PBMCs) as responders. Animals were matched by assigning pairs with maximal MLR response within groups of blood type compatible animals.
# Donor operation: After systemic heparinization (70 units/kg, Elkins-Sinn Inc., Cherry Hill, N.J.) and collection of donor blood during equivolemic saline infusion, diastolic arrest of the donor heart was induced with University of Wisconsin organ preservation solution (15-20 cc/kg, 4° C.) via the aortic root. The heart was explanted and prepared: The mitral valve was rendered incompetent surgically, to prevent left ventricular distention, and an atrial septal defect was created by excising the fossa ovalis, to allow blood entering the left heart through the thebesian circulation to transit to and be ejected from the right heart.
# Recipient operation: All recipient animals underwent traditional non-working intraabdominal cardiac allograft transplantation using a single clamp technique, wherein the donor aorta was anastomosed end-to-side to the infrarenal abdominal aorta, and the donor pulmonary artery was anastomosed to the adjacent vena cava. Heparin (70 Units/kg) (a Unit is equivalent to 3 mg/kg of body weight) was administered to the recipient prior to clamp placement. A silicon central venous catheter was introduced via the internal jugular vein, and tunneled to exit between the scapulae. Catheters were attached to swivel connection systems, and animals placed in protective cloth jackets incorporating a swiveling system which protected venous access.
# Graft function and body temperature were assessed twice daily by monitoring with a fully implantable telemetry device (Data Sciences International, St. Paul, Minn.) (electrocardiogram (EKG), right ventricular pressure and animal body temperature) implanted at the time of transplantation. Confirmatory abdominal ultrasounds were performed at the time of protocol biopsies and whenever an examiner appreciated decreased contractility, if EKG voltage or rate (<120 beats per minute) was decreased, or if developed pulse pressure (delta P) in the graft was decreased. Cardiac biopsies were performed by protocol on postoperative days 4, 7, 14, through a laparotomy incision using a core biopsy needle. Graft failure was defined as loss of palpable graft activity, with ultrasound confirmation of weak or absent myocardial contractility. Failed grafts were explanted promptly and examined histologically.
# Three animals received Compound A as monotherapy at a dose of 5 mg/kg, two animals received Compound A as monotherapy at a dose of 10 mg/kg, and three animals received an equivalent volume of saline (control). Compound A was administered intravenously twice daily at 12 hour intervals (i.e., b.i.d.) starting at transplant. […] The dose on the first day was 12.5 mg/kg, then 10 mg/kg daily for 7 days, then 5 mg/kg daily for 7 days, then 2.5 mg/kg/day until graft rejection or animal sacrifice.
# [2] = tested on: IL6; assay: Cytometric Bead Array Human Inflammation Kit, serum/plasma on day of explant: IL6; type: in vivo, cynomologous monkeys
# Experimental: (§1) Serum and plasma samples taken from the cynomologous monkeys in Example 1 on the day of explant (i.e., the day of graft rejection) were analyzed using the BD Pharmingen Cytometric Bead Array Human Inflammation Kit, which can measure IL1-β, IL6, IL8, IL10, IL12p70 and TNF-α. Reagents to detect IL6, IL8 and TNF-α have been shown by the manufacturer to cross react with rhesus and cynomologus monkey proteins. At the time of the assay, reagents to measure IL1-beta and IL12p70 had not yet been tested for cross reactivity to non-human primate proteins.
# Samples were assayed in the manner described in the manufacturer's protocol booklet; i.e., “Human Inflammation Kit—Instruction Manual” (BD Biosciences, Cat. No. 551811, pdf copy available at www.bdbiosciences.com). Briefly, assay standards were reconstituted with assay diluent and diluted in two fold steps by serial dilution. Capture beads were mixed and distributed into an appropriate number of 12×75 mm polystyrene tubes. Standards or samples were added to the tubes and incubated in the dark at room temperature for 1.5 hours. The incubated tubes were washed once and phycoerythrin (PE)-labeled detection antibody reagent was added. Samples were again incubated in the dark at room temperature for 1.5 hours. After one final wash, samples were resuspended in 300 uL of wash buffer. Flow cytometer data was acquired using a Becton Dickinson FACSCalibur and analyzed with Becton Dickinson CBA Software.
# [3] = tested on: IL6; assay: Serum IL6 by DuoSet ELISA pre and post heterotopic heart transplant; type: in vivo, cynomolgus monkeys
# Experimental: IL1β and IL6 can be measured using the DuoSet ELISA development kits from R&D Systems (Minneapolis, Minn.), following the directions of the manufacturer. Briefly, plates are coated with capture antibody [mouse anti-human IL1β (2 μg/ml) or mouse anti-human IL6 (4 μg/ml)] and detection antibodies are used at 100 ng/ml (biotinylated goat anti-human IL1β) or 200 ng/ml (biotinylated goat anti-human IL6). Standards are prepared with recombinant protein (3.9-250 pg/ml for IL1β and 4.7-300 pg/ml for IL6). Streptavidin conjugated to horseradish peroxidase and H2O2/tetramethylbenzidine are used for color development. Optical density (OD) is measured at 450 nm, with correction at 570 nm.
# Serum samples were taken from the cynomolgus monkeys in Example 1 at various time points pre- and post-transplantation. The samples were diluted 1:2, in PBS/0.1% BSA/0.05% Tween 20. (PBS=phosphate buffered saline; BSA=bovine serum albumin.) IL6 levels (pg/ml) in pre and post heterotopic heart transplant in serum from the cynomolgus monkeys treated with Compound A were determined obtained in accordance with the above-described procedure.
# [4] = tested on: IL8; assay: Cytometric Bead Array Human Inflammation Kit, serum/plasma on day of explant: IL8; type: in vivo, cynomologous monkeys; conditions: Compound A-treated monkeys
# Experimental: as §1
# Samples were assayed in the manner described in the manufacturer's protocol booklet; i.e., “Human Inflammation Kit—Instruction Manual” (BD Biosciences, Cat. No. 551811, pdf copy available at www.bdbiosciences.com). Briefly, assay standards were reconstituted with assay diluent and diluted in two fold steps by serial dilution. Capture beads were mixed and distributed into an appropriate number of 12×75 mm polystyrene tubes. Standards or samples were added to the tubes and incubated in the dark at room temperature for 1.5 hours. The incubated tubes were washed once and phycoerythrin (PE)-labeled detection antibody reagent was added. Samples were again incubated in the dark at room temperature for 1.5 hours. […] Flow cytometer data was acquired using a Becton Dickinson FACSCalibur and analyzed with Becton Dickinson CBA Software.
# [5] = tested on: IL1-beta mRNA expression in RANTES-stimulated macrophages; assay: Cytokine mRNA expression (TaqMan) in RANTES-stimulated human macrophages: IL1-beta; type: cell-based; conditions: RANTES 250 nM
# Experimental: (§2) Human monocytes were isolated white blood cells concentrated from units of blood (i.e., leukopaks) from normal donors. To enhance CCR5 expression, the monocytes were cultured under suspension conditions in Teflon jars for 2 days in media supplemented with 12% fetal bovine serum. 10^6 cells were seeded and allowed to attach for over 2 hours in 6-well tissue culture plates. Cells were pre-incubated with either dimethylsulfoxide (DMSO; vehicle control) or Compound A at various concentrations for 1 hour, after which RANTES (the CCR5 agonist/ligand; Pepro Tech Inc.) was added at 250 nM, or, alternatively, media was added as a control. The cells were incubated at 37° C. for 24 hours, after which the media were removed and centrifuged to precipitate the non-adherent cells. Both the adhered and non-adhered cells were lysed and subjected to mRNA isolation, and the mRNA isolate was analyzed for cytokine expression by quantitative real time PCR (TaqMan). The relative mRNA-fold induction of cytokine gene expression in the RANTES-stimulated macrophages was calculated relative to day 2 non-stimulated, non-treated controls (i.e. fold induction=1 on day 2 for controls), as well as fold mRNA induction relative to vehicle (DMSO) (0 nM) control RANTES stimulated cells.
# [6] = tested on: CCR5+ cells; assay: Double-label immunofluorescence microscopy of leukocytes infiltrating rejecting allografts; type: in vivo, Macaca fascicularis; conditions: in association with CCR5 blockade
# From the text: Double-label immunofluorescence microscopy using antibodies specific for CD3, CD68, CD11b, CCR5 and CXCR3 was used to characterize leukocyte populations infiltrating acutely rejecting (days 4, 6) cynomolgus cardiac allografts. CCR5 and CXCR3 are prominent on monocytes/macrophages and to a lesser extent on T-cells in rejecting cynomolgus heart allografts. Co-localization of CCR5 and CXCR3 to the same cells was common, particularly on the […] monocyte/macrophage population. Infiltration of CCR5+ cells was inhibited in association with CCR5 blockade. Graft failure was identified by a decrease in heart rate and ST elevation (associated with ischemia) on EKG and a decrease in arterial line pressure. […] (Note: n=7 refers to the data for the 3 control (i.e., saline) monkeys in this experiment plus data for 4 animals from a historic database that were scored as controls in which cyno cardiac allografts were rejected in the absense of immunosupression in a manner identical to the three controls in this experiment.)
# [7] = tested on: IL6 mRNA expression in RANTES-stimulated macrophages; assay: Cytokine mRNA expression (TaqMan) in RANTES-stimulated human macrophages: IL6; type: cell-based; conditions: RANTES 250 nM
# Experimental: as §2
# [8] = molecular target: T1, CCR5 receptor (Macaca fascicularis, UniProt P61814); assay: Receptor occupancy corresponding to plasma concentration; type: binding; conditions: at a concentration of 100 nM
# T1 construct: endogenous in cells; host or cells: cynomolgus monkey (in vivo, CCR5-bearing leukocytes)
# [9] = Plasma trough concentrations by LC-MS/MS; type: in vivo, Macaca fascicularis; conditions: cynomolgus plasma, Compound A i.v. b.i.d.
# [10] = tested on: Cynomolgus macaques (Macaca fascicularis); assay: Fever suppression after cardiac allotransplantation (telemetry body temperature, behaviour); type: in vivo; conditions: for monkeys that did not develop a fever (temperature greater than 38.5° C.): while recovering from transplantation, seven monkeys treated with CCR5 antagonist (alone or with cyclosporin)
# [11] = Homo sapiens, Macrophage, Compound A 10 nM, 24 hours, mean ± SD
# [12] = Homo sapiens, Macrophage, Compound A 30 nM, 24 hours, mean ± SD
# [13] = Homo sapiens, Macrophage, Compound A 300 nM, 24 hours, mean ± SD
smiles,measurement,setting,value
CCn1nc(Cc2ccccc2)cc1C1CCN(C[C@H]2C[C@H](N(C)[C@@H](C(=O)O)C(C)C)C[C@@H]2c2cccc(F)c2)CC1 [Compound A],Graft survival,"[1]; Compound A monotherapy 5 mg/kg i.v. b.i.d., n=3, controls 6±0.4 days (n=7), p=0.05",8.3 ± 0.6 days
same,Explant Day (day of graft rejection),"[1]; M308, Compound A monotherapy at 10 mg/kg/day b.i.d.",8
same,Explant Day (day of graft rejection),"[1]; M627, Compound A 10 mg/kg b.i.d., rescued day 9 with bolus steroids, combined therapy with CsA 43 days, from day 52 Compound A monotherapy",85
same,day to which vigorous graft function persisted,"[1]; one animal: Compound A alone 10 mg/kg b.i.d., rescued day 9 with bolus steroids, combined therapy with CsA 43 days, CsA stopped day 52, Compound A continued",83 days and 78 days
same,IL6 on day of explant,"[2]; M308, Compound A monotherapy at 10 mg/kg/day b.i.d., explant day 8",58 pg/mL
same,IL6 on day of explant,"[2]; M627, Compound A 10 mg/kg b.i.d., steroid rescue day 9, combined therapy with CsA 43 days, Compound A monotherapy from day 52, explant day 85",20 pg/mL
same,IL6 cytokine levels at the time of graft rejection relative to monkeys treated only with CsA,[2]; monkeys treated with Compound A,suppressed
same,"IL6 level, Day 0 Post","[3]; serum post-transplantation, Compound A monotherapy 10 mg/kg/day b.i.d., M308, M627",63.7 pg/mL and 106.2 pg/mL
same,"IL6 level, Day 0 Pre","[3]; serum pre-transplantation, animals M308, M627 later given Compound A monotherapy 10 mg/kg/day b.i.d.",4.6 pg/mL and 3.4 pg/mL
same,"IL6 level, Day 8","[3]; serum, Compound A monotherapy 10 mg/kg/day b.i.d., M308",24.3 pg/mL
same,IL8 cytokine levels at the time of graft rejection relative to CsA-only treated monkeys,[4],did not indicate suppression of IL8 levels
same,inhibition at 0.003 µM,"[5]; Homo sapiens, Macrophage, Compound A 3 nM, 24 hours, mean ± SD",37.6%
same,inhibition at 0.01 µM,[5]; [11],50.1%
same,inhibition at 0.03 µM,[5]; [12],59%
same,inhibition at 0.1 µM,"[5]; Homo sapiens, Macrophage, Compound A 100 nM, 24 hours, mean ± SD",76.8%
same,inhibition at 0.3 µM,[5]; [13],80.6%
same,effect on IL1-β mRNA up-regulation by RANTES,[5]; human macrophages,diminish IL1-β and IL6 up-regulation significantly; also recorded: dose-dependent
same,Infiltration of CCR5+ cells into cardiac allografts,[6],inhibited
same,inhibition at 0.003 µM,"[7]; Homo sapiens, Macrophage, Compound A 3 nM, 24 hours",43%
same,inhibition at 0.01 µM,[7]; [11],16.1%
same,inhibition at 0.03 µM,[7]; [12],65.9%
same,inhibition at 0.1 µM,"[7]; Homo sapiens, Macrophage, Compound A 100 nM, 24 hours",67.1%
same,inhibition at 0.3 µM,[7]; [13],85.9%
same,effect on IL6 mRNA up-regulation by RANTES,[7]; human macrophages,diminish IL1-β and IL6 up-regulation significantly; also recorded: dose-dependent
same,receptor occupancy at 0.1 µM,[8],~90%
same,trough plasma concentration (levels fell below target range at trough),[9],< 100 nM
same,malaise,"[10]; after cardiac allotransplantation, in contrast to the five control animals",not to exhibit malaise
same,symptoms of abdominal tenderness,[10]; after transplant and during rejection of the graft,did not exhibit any symptoms of abdominal tenderness
same,recovery from surgery (how quickly normal activity levels resumed),[10]; despite additional procedures on days 4 and 7-8,recovered more quickly from surgery
same,average temperature,"[10]; first three days after allograft implantation, six of the seven animals treated with Compound A (5 or 10 mg/kg b.i.d. i.v., alone or with CsA)",below 37.5 °C
same,"average temperature difference versus control monkeys (saline, no immunosuppressive therapy)",[10]; first three days after surgery,about one degree lower
same,average temperature difference versus cyclosporin-only-treated animals,[10]; first three days after surgery,one half degree lower; also recorded: about 0.5 °C
same,average temperature over the first three days after surgery,"[10]; monkeys with cardiac allografts, control (saline) ca. 38.5° C.",circa 37.5 °C
same,animals in which individual temperature elevations reached 38.5° C. on any occasion,[10]; of the seven animals treated with Compound A,3
same,monkeys that did not develop a fever (temperature greater than 38.5° C.),[10],six of seven
same,monkeys that did not develop a fever (temperature greater than 38.5° C.),[10]; listed as CCR5 antagonist,Six out of the seven
